Experiments:
[1] = tested on: swelling induced by cantharidin; assay: Mouse cantharidin test (topical anti-inflammatory activity, mouse ear swelling); type: in vivo; details: 24 hours, CDl male mice, **p < 0.01, ***p < 0.001; for inhibition in vivo at 200 µg/ear: dose 200 μg/ear; for inhibition in vivo at 500 µg/ear: dose 500 μg/ear
Protocol: Compounds were tested for topical anti-inflammatory activity in a cantharidin mouse ear screen, modified from Swingle, Reiter and Schwartzmiller [Arch. int. Pharmacodyn. 254, 168-176, 1981].
25 μg cantharidin (in 10 μl tetrahydrofuran:methanol, 1:1 v/v) is applied to both ears of CDl male mice, 25 g bodyweight. 8 animals are used per experimental group. Compounds are included in the irritant solution applied to the left ear only. Negative control animals receive no treatment except 10 μl solvent on each ear. After 24 hours, the animals are killed and the ears are removed by cutting along the hairline and then weighed. The swelling induced by cantharidin is assessed as the increase in the weight of the right ears over that of the right ears of solvent-treated control animals, as a proportion of the weight of solvent-treated right ears. The swelling induced in the same animals in the presence of test compound is similarly the increase in the weight of the left ears over that of the left ears of the solvent-treated control animals, expressed as a proportion of the weight of solvent-treated left ears.
thus, % inhibition=([means wt.left experimental ears-mean wt.left 100-control ears]/[mean wt.left control ears])×100 ([mean wt.right experimental ears-mean wt.right control ears]/[mean wt.right control ears])
(§1) This method reduces the contribution of inter-animal variations in responsiveness to the inflammatory stimulus, and also compensates for any consistent bias in cutting off left and right ears. The significance of the inhibition is calculated using a paired `t` test of the two values of proportional weight increases.

[2] = tested on: swelling induced by oxazolone; assay: Mouse oxazolone test (topical anti-inflammatory activity in mice sensitised to oxazolone, ear swelling); type: in vivo; details: dose 200 μg/ear, 1 hour before challenge, 24 hours after, CDl male mice, *p < 0.1, **p < 0.01, ***p < 0.001
Protocol: Compounds were tested for topical anti-inflammatory activity in a model system using the mouse sensitised to oxazolone, by a method modified from that of Dietrich and Hess [Int. Arch. Allergy, 38, 246 (1970)].
Mice are sensitised with oxazolone (2 mg in 20 μl acetone) on a shaved area of the abdomen. CDl male mice of around 25 g bodyweight (8 animals per group) are used. 5 days later, the animals receive 10 μl tetrahydrofuran:methanol (1:1 v/v) on the right ear and the test compound in 10 μl of the same solvent on the left ear. 1 hour later, the animals are challenged with 100 μg oxazolone in 10 μl acetone on each ear. Negative control animals receive no treatment except 10 μl tetrahydrofuran:methanol at the initial time point. After 24 hours, the animals are killed and the ears are removed by cutting along the hairline and then weighed. The swelling induced by oxazolone is assessed as the increase in the weight of the right ears over that of the right ears of solvent-treated control animals, as a proportion of the weight of solvent-treated right ears. The swelling induced in the same animals in the presence of test compound is similarly the increase in the weight of the left ears over that of the left ears of the solvent-treated control animals, expressed as a proportion of the weight of solvent-treated left ears.
thus, % inhibition=([mean wt.left experimental ears-mean wt.left 100-control ears]/[mean wt.left control ears])×100 ([mean wt.right experimental ears-mean wt.right control ears]/[mean wt.right control ears])
as §1

SMILES | inhibition in vivo at 200 µg/ear [1] [%] | inhibition in vivo at 500 µg/ear [1] [%] | % Inhibition [2] [%]
CCCCC(=O)OCCNc1cc(C)nc2cn[nH]c12 [Example 9, 7-(2-Pentanoyloxyethylamino)-5-methyl-1H-pyrazolo[4,3-b]pyridine] | 69 | – | –
O=C(CCCNc1ccnc2cn[nH]c12)NCc1ccccc1 [Example 8, (7-(1H-Pyrazolo[4,3,-b]pyridyl)amino)butanoic acid benzylamide] | – | 95 | –
Cc1cc(NCCN2CCOCC2)c2[nH]ncc2n1 [Example 5, 7-[2-(N-Morpholino)ethylamino]-5-methyl-1H-pyrazolo [4,3-b]pyridine dihydrate] | 97.6 | – | 61.6
CC(C)CCOC(=O)CCCNc1ccnc2cn[nH]c12 [Example 12, Isoamyl (7-(1H-pyrazolo[4,3-b]pyridyl)amino)butanoate] | 78 | – | –
CCOC(=O)CCCNc1ccnc2cn[nH]c12 [Example 2, Ethyl 4-(7-(1H-Pyrazolo[4,3-b]pyridyl)amino)butanoate] | – | 94.6 | 48.6
CC(=O)OCCCNc1cc(C)nc2cn[nH]c12 [Example 6, 7-[3-Acetoxypropylamino]-5-methyl-1H-pyrazolo[4,3-b]-pyridine] | 70 | – | 53
Cc1cc(NCCOC(=O)c2ccccc2)c2[nH]ncc2n1 [Example 7, 7-[2-Benzoyloxyethylamino]-5-methyl-1H-pyrazolo[4,3-b]pyridine] | – | 99.6 | 30
CCC(=O)OCCNc1cc(C)nc2cn[nH]c12 [Example 10, 7-[2-Propionyloxyethylamino]-5-methyl-1H-pyrazolo[4,3-b]pyridine] | 55 | – | –
Cc1cc(NCCCN2CCCC2=O)c2[nH]ncc2n1 [Example 3, 5-Methyl-7-(3-(1-(2-oxopyrrolidinyl))propylamino)-1H-pyrazolo[4,3-b]pyridine] | 75.3 | – | 44.1
CCCCC(=O)OCCCNc1cc(C)nc2cn[nH]c12 [Example 4, 7-[3-Pentanoyloxypropylamino]-5-methyl-1H-pyrazolo[4,3-b]pyridine] | 69.9 | – | –

From patent publication US4818754A, “Certain anti-inflammatory pyrazolo [4,3-b] pyridine 7-amines” (Beecham Group p.l.c. of Beecham House, priority 1986, dated 1989)
